The values below are quoted from earlier work in patent US8865693B2, “Prevention of infection” (Pop Test Cortisol LLC, priority 2011, dated 2014).

For series [1] the following is noted: phase I and phase II clinical trials already performed.
Series [2] relates to mineralocorticoid, progesterone, estrogen and androgen receptors. The settings on record: in words only.
The conditions of series [3]: in words only.
A further series addresses T1, glucocorticoid receptor (Homo sapiens, UniProt P04150).
T1 sequence (P04150 1-777): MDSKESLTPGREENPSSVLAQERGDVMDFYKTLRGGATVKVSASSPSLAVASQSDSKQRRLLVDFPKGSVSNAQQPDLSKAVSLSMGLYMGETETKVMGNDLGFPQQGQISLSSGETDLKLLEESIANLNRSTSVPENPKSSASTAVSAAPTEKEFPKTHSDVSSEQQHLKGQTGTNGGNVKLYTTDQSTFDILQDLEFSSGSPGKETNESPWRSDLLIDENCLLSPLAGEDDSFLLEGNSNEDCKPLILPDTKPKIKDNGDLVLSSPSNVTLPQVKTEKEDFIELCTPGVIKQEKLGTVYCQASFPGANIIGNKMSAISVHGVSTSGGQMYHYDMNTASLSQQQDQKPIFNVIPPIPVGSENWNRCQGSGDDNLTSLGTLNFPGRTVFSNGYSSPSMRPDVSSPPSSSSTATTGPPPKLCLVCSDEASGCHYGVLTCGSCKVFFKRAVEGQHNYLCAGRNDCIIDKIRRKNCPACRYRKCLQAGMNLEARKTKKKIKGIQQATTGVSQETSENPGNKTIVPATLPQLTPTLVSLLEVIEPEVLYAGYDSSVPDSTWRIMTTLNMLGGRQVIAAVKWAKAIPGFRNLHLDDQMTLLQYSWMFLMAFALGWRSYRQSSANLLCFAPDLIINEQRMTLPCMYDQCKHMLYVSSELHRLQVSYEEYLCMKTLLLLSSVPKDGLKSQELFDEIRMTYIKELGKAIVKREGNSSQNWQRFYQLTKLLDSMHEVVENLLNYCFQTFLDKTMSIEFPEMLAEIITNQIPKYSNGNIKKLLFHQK
As to conditions: in words only.

The conditions of series [4]: in words only. This is another data set of the same source.

Molecules are shown by their SMILES.

Regarding `CC#C[C@]1(O)CC[C@H]2[C@@H]3CCC4=CC(=O)CCC4=C3[C@@H](c3ccc4c(c3)OCO4)C[C@@]21C` [ORG 34517, (11β,17β)-11-(1,3-benzodioxol-5-yl)-17-hydroxy-17-(1-propynyl) estra-4,9-dien-3-one], in series [1], the “significant toxicities and side effects identified” value is recorded as “none were identified”. In series [2], the “cross-binding to other related steroidal hormone receptors (such as those for estrogen and progesterone)” value was “without significant cross-binding”. For the same molecule, the androgenic activities entry in series [3] is “low”. For the same molecule, the “glucocorticoid receptor binding affinity” value on glucocorticoid receptor is given as “high”. In addition, the progestagenic activities result in series [4] was “low”.
